Experiment: in vitro dissolution testing in simulated gastric fluids, Type 1 USP dissolution apparatus
Type: physicochemical
Settings: coated trilayer tablet of the Example, 0.01 N hydrochloric acid, 100 rpm, 37° C.
Procedure: The coated tablets were subjected to in vitro dissolution testing in simulated gastric fluids (0.01 N hydrochloric acid) at 100 rpm and 37° C. using Type 1 USP dissolution apparatus. [table]

Row | % released (0 hours) [%] | % released (1 hour) [%] | % released (2 hours) [%] | % released (4 hours) [%] | % released (6 hours) [%] | % released (8 hours) [%] | Structure (SMILES)
1 | 0 | 22 | 31 | 52 | 76 | 86 | C[C@@](Cc1ccc(O)c(O)c1)(NN)C(=O)O [Carbidopa]
2 | 0 | 24 | 33 | 57 | 82 | 95 | N[C@@H](Cc1ccc(O)c(O)c1)C(=O)O [levodopa]
